The source of these data is patent publication US8389509B2, “Substituted pyrazole compounds” (Bristol-Myers Squibb Company, priority 2009, dated 2013).

Test [1] addresses T1, S1P1 (Homo sapiens, UniProt P21453).
T1 construct: expressed in transfected cells; host or cells: CHO cells
The test can be described thus: Method B: Receptor [35S] GTPγS SPA Binding Assay, S1P1. Type of test: biochemical. Particulars: for GTPγS S1P3/S1P1 (Method B): ratio of S1P3 EC50 to S1P1 EC50, Method B; for EC50: Method B (SPA), S1P1 transfected CHO cell membranes. Here is the method:
(§1) Method B: Receptor [^35S] GTPγS SPA Binding Assays
(§2) Membranes prepared from S1P1 or S1P3 transfected CHO cells (2 μg protein) were incubated in 96-well white plates (CORNING® 3693) with test compounds diluted in DMSO, in 50 μl of reaction mixture containing 7.5 μA WGA-PVT beads (20 mg/ml), and 5 μM GDP, 20 mM HEPES pH 7.4, 100 mM NaCl, 1 mM EDTA, 5 mM MgCl2, 10 μg/ml saponin, 0.1% BSA, and 1 μM leupeptin. The assay was initiated with the addition of […] of 0.2 nM [^35S]-GTPγS (1250 Ci/mmol; NEN) in assay buffer. After 90 min incubation at room temperature, spin the plate at 1000 rpm for 5 min. The bound radionuclides were measured at TOPCOUNT®, expressed as % response relative to S1P (1 μM) activation. Data was analyzed using the four parameter logistic equation in Excel. The four parameters in the equation, Y=A+((B−A)/(1+((EC50/X)^D))), are described as following: A is the Y value (agonist activity) at the bottom plateau; B is the Y value at the top plateau; EC50 is the X value (agonist concentration) when the response is halfway between bottom and top; D is Hill coefficient. Curves were not generated for compounds having Ymax values were below 50%.
(§3) Compounds of the present invention and Comparative Compound A were tested in the Receptor [^35S] GTPγS Binding Assays (Method A) and Receptor [^35S] In some instances, the value is an average of multiple experiments where N is the number of experiments conducted that provided satisfactory dose response curves. When more than one batch of an example was tested, the value presented is from a batch which allowed a comparison of GTPγS S1P1 and GTPγS S1P3 in which the most number of experiments were performed. Preferably, the same batch was examined in Method A and Method B. Data was not averaged across different batches of an example compound.
(In general: GTPγS is a poorly hydrolysed GTP analogue; its binding reports G protein activation.)

In test [2] the target is T1, S1P1. The test can be described thus: Method A: Receptor [35S] GTPγS Binding Assay, S1P1. Particulars: ratio of S1P3 EC50 to S1P1 EC50, Method A. Type of test: biochemical. Here is the method: Method A: Receptor [35S] GTPγS Binding Assays
Compounds were loaded in a 384 FALCON® v-bottom plate (0.5 μl/well in a 3-fold dilution). Membranes prepared from S1P1/CHO cells or EDG3-Gal5-bla HEK293T cells were added to the compound plate (40 μl/well, final protein 3 μg/well) with MULTIDROP®. [^35S]GTP (1250 Ci/mmol, Perkin Elmer) was diluted in assay buffer: 20 mM HEPES, pH7.5, 10 mM MgCl2, 150 mM NaCl, 1 mM EGTA, 1 mM DTT, 10 μM GDP, 0.1% fatty acid free BSA, and 10 μg/ml Saponin to 0.4 nM. 40 μl of the [^35S] GTP solution was added to the compound plate with a final concentration of 0.2 nM. The reaction was kept at room temperature for 45 min. At the end of incubation, all the mixtures in the compound plate were transferred to a 384 well FB filter plates via GPCR robot system. The filter plate was washed with water 4 times by using the modified manifold Embla plate washer and dried at 60° C. for 45 min. 30 μA of MicroScint 20 scintillation fluid was added to each well for counting at Packard TOPCOUNT®. EC50 is defined as the agonist concentration that corresponds to 50% of the Ymax (maximal response) obtained for each individual compound tested.
as §3

In test [3] the target is S1P3 (Homo sapiens, UniProt Q99500). The experiment in a line: Method B: Receptor [35S] GTPγS SPA Binding Assay, S1P3. Further details: expressed in transfected cells; host or cells: CHO cells. The note with it: S1P3 transfected CHO cell membranes. The class given is biochemical. Here is the method: as §1, §2, §3
Test [4] deals with T1, S1P1. The test can be described thus: S1P1 Binding Assay (33P-S1P competition, CHO membranes). Particulars: membranes of CHO cells expressing human S1P1, 33P-S1P ligand; read-out: S1P1 B IC50. The protocol: Membranes were prepared from CHO cells expressing human S1P1. Cells were dissociated in buffer containing 20 mM HEPES, pH 7.5, 50 mM NaCl, 2 mM EDTA and Protease Inhibitor cocktail (Roche), and disrupted on ice using the Polytron homogenizer. The homogenate was centrifuged at 20,000 rpm (48,000 g) and the supernatant was discarded. The membrane pellets were resuspended in buffer containing 50 mM HEPES, pH 7.5, 100 mM NaCl, 1 mM MgCl2, 2 mM EDTA and stored in aliquots at −80° C. after protein concentration determination.
Membranes (2 μg/well) and 0.03 nM final concentration of ^33P-S1P ligand (1 mCi/ml, American Radiolabeled Chemicals) were added to the compound plates. Binding was performed for 60 min at room temperature, terminated by collecting the membranes onto GF/B filter plates, and radioactivity was measured by TOPCOUNT®. The competition data of the test compounds over a range of concentrations was plotted as percentage inhibition of radioligand specific binding. The IC50 is defined as the concentration of competing ligand needed to reduce specific binding by 50%.
Compounds of the present invention and Comparative Compound A were tested in the S1P1 binding assay described hereinabove and the results rounded to two digits, shown in Table A were obtained. In some instances, the value is an average of multiple experiments where N is the number of experiments conducted that provided satisfactory dose response curves. When more than one batch of an example was tested, the value presented is from the batch which allowed a comparison of GTPγS S1P1 and GTPγS S1P3 in Method A (Data shown in Table B). Data was not averaged across different batches of an example compound.

Structures can show the parent of a compound that is named as a salt.

Sequence of S1P3 (Q99500 whole entry): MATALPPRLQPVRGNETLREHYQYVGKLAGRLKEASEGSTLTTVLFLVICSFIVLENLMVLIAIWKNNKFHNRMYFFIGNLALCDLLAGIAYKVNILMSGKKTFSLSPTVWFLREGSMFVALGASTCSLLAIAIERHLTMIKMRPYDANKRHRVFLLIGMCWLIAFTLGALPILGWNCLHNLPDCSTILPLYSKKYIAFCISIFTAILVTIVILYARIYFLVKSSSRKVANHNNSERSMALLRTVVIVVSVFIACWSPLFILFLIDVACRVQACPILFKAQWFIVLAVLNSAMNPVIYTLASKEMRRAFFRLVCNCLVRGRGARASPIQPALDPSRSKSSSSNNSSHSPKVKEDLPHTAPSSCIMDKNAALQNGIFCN
T1 sequence (P21453 whole entry): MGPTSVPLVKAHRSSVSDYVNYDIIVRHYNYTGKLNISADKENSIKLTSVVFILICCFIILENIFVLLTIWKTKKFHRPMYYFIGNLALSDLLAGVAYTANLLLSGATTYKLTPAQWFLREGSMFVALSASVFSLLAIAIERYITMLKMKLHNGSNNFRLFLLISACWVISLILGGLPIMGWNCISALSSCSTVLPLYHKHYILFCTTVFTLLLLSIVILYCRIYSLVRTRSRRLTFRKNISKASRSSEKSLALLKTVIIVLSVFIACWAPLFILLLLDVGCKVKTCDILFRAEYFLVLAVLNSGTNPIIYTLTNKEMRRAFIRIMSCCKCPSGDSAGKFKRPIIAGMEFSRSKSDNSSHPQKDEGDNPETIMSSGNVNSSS

Consider `O=C(O)C1CN(Cc2ccc(-c3noc(-c4cc(-c5ccccc5)c(C(F)(F)F)s4)n3)cc2)C1` [Comp. A, 1-(4-(5-(4-phenyl-5-(trifluoromethyl)thiophen-2-yl)-1,2,4-oxadiazol-3-yl)benzyl)-azetidine-3-carboxylic acid, reference compound], for which, in test [1], the “GTPγS S1P3/S1P1 (Method B)” value turned out to be 78. Besides, the “GTPγS S1P3/S1P1 (Method A)” value in test [2] was 1.2.
Take `CC(C)Nc1c(-c2nc(-c3ccc(CN4CC(C(=O)O)C4)cc3)no2)cnn1-c1ccccc1` [Example 3, 1-(4-(5-(5-(isopropylamino)-1-phenyl-1H-pyrazol-4-yl)-1,2,4-oxadiazol-3-yl)benzyl)azetidine-3-carboxylic acid]: the EC50 was 1700 nM in test [3] and 0.15 nM in test [1]. In addition, the “GTPγS S1P3/S1P1 (Method B)” value in test [1] is on record as 11,000. In addition, the IC50 in test [4] amounted to 0.48 nM.
In the case of `CCNc1c(-c2nc(-c3ccc(CN4CC(C(=O)O)C4)cc3)no2)cnn1-c1ccccc1` [Example 4, 1-(4-(5-(5-(ethylamino)-1-phenyl-1H-pyrazol-4-yl)-1,2,4-oxadiazol-3-yl)benzyl)azetidine-3-carboxylic acid], the EC50 in test [3] was 400 nM; in test [1], 0.19 nM. Moreover, in test [1], the “GTPγS S1P3/S1P1 (Method B)” value is 2,100. For the same molecule, in test [4], the IC50 was determined as 1.1 nM.
In the case of `O=C(O)C1CN(Cc2ccc(-c3noc(-c4cnn(-c5ccccn5)c4C4CCCC4)n3)cc2)C1` [Example 7, 1-(4-(5-(5-cyclopentyl-1-(pyridin-2-yl)-1H-pyrazol-4-yl)-1,2,4-oxadiazol-3-yl)benzyl)azetidine-3-carboxylic acid], the EC50 in test [3] was 220 nM. In test [1], a half-maximal effect (EC50) was put at 0.087 nM and the “GTPγS S1P3/S1P1 (Method B)” value is 2,500. The concentration for half-maximal inhibition (IC50) in test [4] was found to be 0.19 nM.
In the case of `Cc1c(-c2nc(-c3ccc(CN4CC(C(=O)O)C4)cc3)no2)cnn1C1CCCCC1` [Example 9, 1-(4-(5-(1-cyclohexyl-5-methyl-1H-pyrazol-4-yl)-1,2,4-oxadiazol-3-yl)benzyl)azetidine-3-carboxylic acid], a half-maximal effect in test [3] (EC50) was put at 710 nM. Also, in test [1], the midpoint of the response, the EC50, lay at 1.3 nM and the “GTPγS S1P3/S1P1 (Method B)” value stood at 550.
Consider `O=C(O)C1CN(Cc2ccc(-c3noc(-c4cnn(-c5ccccn5)c4-c4ccccc4)n3)cc2)C1` [Example 10, 1-(4-(5-(5-phenyl-1-(pyridin-2-yl)-1H-pyrazol-4-yl)-1,2,4-oxadiazol-3-yl)benzyl)azetidine-3-carboxylic acid], for which the EC50 in test [3] was 1100 nM; in test [1], 0.42 nM. Further, in test [1], the “GTPγS S1P3/S1P1 (Method B)” value is 2,600. Further, the IC50 in test [4] was 1.1 nM.
`O=C(O)C1CN(Cc2ccc(-c3noc(-c4cnn(-c5ccccc5)c4Cl)n3)cc2)C1` [Example 11, 1-(4-(5-(5-chloro-1-phenyl-1H-pyrazol-4-yl)-1,2,4-oxadiazol-3-yl)benzyl)azetidine-3-carboxylic acid] showed an EC50 in test [3] of 2000 nM. In test [1], the EC50 came out at 1.9 nM and the “GTPγS S1P3/S1P1 (Method B)” value is reported as 1,100.
With `CC(C)CNc1c(-c2nc(-c3ccc(CN4CC(C(=O)O)C4)cc3)no2)cnn1-c1ccccc1` [Example 12, 1-(4-(5-(5-(Isobutylamino)-1-phenyl-1H-pyrazol-4-yl)-1,2,4-oxadiazol-3-yl)benzyl)azetidine-3-carboxylic acid], the results for the EC50 in test [3] and in test [1] were 9800 nM and 0.28 nM, respectively. Moreover, in test [1], the “GTPγS S1P3/S1P1 (Method B)” value is 35,000. In addition, the IC50 in test [4] came to 1.7 nM.
`CCCCNc1c(-c2nc(-c3ccc(CN4CC(C(=O)O)C4)cc3)no2)cnn1-c1ccccc1` [Example 13, 1-(4-(5-(5-(n-butylamino)-1-phenyl-1H-pyrazol-4-yl)-1,2,4-oxadiazol-3-yl)benzyl)azetidine-3-carboxylic acid] had an EC50 in test [3] of 51 nM. In addition, in test [1], a half-maximal response (EC50) required 0.17 nM and the “GTPγS S1P3/S1P1 (Method B)” value is 300. Moreover, the IC50 in test [4] amounted to 3.1 nM.
Consider `O=C(O)C1CN(Cc2ccc(-c3noc(-c4cnn(-c5ccccc5)c4Br)n3)cc2)C1` [Example 14, 1-(4-(5-(5-Bromo-1-phenyl-1H-pyrazol-4-yl)-1,2,4-oxadiazol-3-yl)benzyl)azetidine-3-carboxylic acid, 2,2,2-trifluoroacetic acid salt], for which the values for the EC50 in test [3] and in test [1] were 7100 nM and 2.1 nM, respectively. The “GTPγS S1P3/S1P1 (Method B)” value in test [1] is on record as 3,400. Also, in test [4], the IC50 is 0.98 nM.

By EC50 is commonly meant the concentration giving half of the maximal effect. High values mean a less potent agent, low ones a more potent agent. As usually defined, the IC50 is the concentration needed to halve the response being measured.
